The text below walks through data of US20250295660A1, “METHODS OF TREATING NF1-MUTANT TUMORS USING LSD1 INHIBITORS” (ORYZON GENOMICS, S.A., priority 2022, published 2025).

Type in all cases: cell-based
For data set [1], the system named is sNF02.2 (MPNST) cell line. In words: Cell viability of NF1-mutant tumor cell line sNF02.2 (MTT or AlamarBlue). The note with it: 6 days treatment; for EC50: 144 h, NF1 c. 4868A > T. As for the experimental part:
(§1) Mycoplasma-free tumor cell lines from different tumor types carrying mutations in the NF1 gene (see Table 1) were seeded in 50 μl/well of complete medium (as described in Table 2, all reagents from Thermo Fisher) in 96-well plates at the optimal cell density to ensure log-phase growth throughout the duration of the experiment (see Table 2). The day after seeding, 50 μl of medium containing 9 serial dilutions (1:3) of 2×-concentrated iadademstat (LSD1 inhibitor; used as the dihydrochloride salt) were added to the cells to obtain 100 μl of cells treated with 1×-concentrated compound at each dilution. Additionally, the effect of other LSD1 inhibitors, i.e. bomedemstat (bis-tosylate salt) and pulrodemstat (besylate salt), was likewise evaluated in a subset of these tumor cell lines (sNF96.2, sNF02.2, MOLM13 and NCIH510A).
(§2) Each experimental condition was tested in technical triplicates, including medium-only wells and vehicle-treated controls for background correction and normalization, respectively. After treatment, cells were incubated at 37° C. in a humidified and controlled 5% CO2 atmosphere (see Table 2 for duration of treatment according to the growth curve of each cell line and number of cells seeded) and compound and medium refreshment was performed by adding 50 μl of medium supplemented with 1×-concentrated compound at each corresponding dilution when the duration of the treatment exceeded 4 days of drug incubation (see Table 2). After treatment, cell viability was evaluated using either the MTT assay (Sigma-Aldrich) or AlamarBlue™ Cell viability reagent (Life Technologies), following manufacturer's instructions. Background was calculated as the mean of the values of medium-only controls and subtracted from each data point. The average of background-corrected technical triplicates was calculated and normalized by the mean of vehicle-treated controls (corresponding to 100% of viability). Data were analyzed using GraphPad PRISM® version 9.0.1 (GraphPad Software, Inc., La Jolla, CA/USA) to calculate the best-fitting curves and the EC50 values (corresponding to the concentration of compound at which a half (50%) maximal effect is obtained; lower EC50 values thus indicate greater potency).
Background: The colour change of resazurin is a common sign of viable cells or microbes.

In the next data set the test system is MOLM13 (AML) cell line. In words: Cell viability of NF1-mutant tumor cell line MOLM13 (MTT or AlamarBlue). Conditions: 4 days treatment; for EC50: Homo sapiens, MOLM-13, 96 h, NF1 p. E1720D. As for the experimental part: as §1, §2
The subject of data set [2] is NCIH510A (SCLC) cell line. In words: Cell viability of NF1-mutant tumor cell line NCIH510A (MTT or AlamarBlue). Conditions: 10 days treatment; for EC50: Homo sapiens, NCI-H510A, 240 h, NF1 p. D2184G/p. L2618L. How it is done: as §1, §2
Data set [3] deals with MPNST-NF1-18b (MPNST) cell line. In words: Cell viability of NF1-mutant tumor cell line MPNST-NF1-18b (MTT or AlamarBlue). The note with it: 6 days treatment. How it is done: as §1
(§3) Each experimental condition was tested in technical triplicates, including medium-only wells and vehicle-treated controls for background correction and normalization, respectively. […] After treatment, cell viability was evaluated using either the MTT assay (Sigma-Aldrich) or AlamarBlue™ Cell viability reagent (Life Technologies), following manufacturer's instructions. Background was calculated as the mean of the values of medium-only controls and subtracted from each data point. […]

The subject of data set [4] is TC71 (Ewing's sarcoma) cell line. Description: Cell viability of NF1-mutant tumor cell line TC71 (MTT or AlamarBlue). The note with it: 6 days treatment. As for the experimental part: as §1, §3
Data set [5] deals with MDAMB231 (TN breast cancer) cell line. Description: Cell viability of NF1-mutant tumor cell line MDAMB231 (MTT or AlamarBlue). Conditions: 4 days treatment. How it is done: as §1, §3
Data set [6] has as its system MHHES1 (Ewing's sarcoma) cell line. In words: Cell viability of NF1-mutant tumor cell line MHHES1 (MTT or AlamarBlue). Conditions: 6 days treatment. How it is done:
as §1, §3

Data set [7] has as its system hTERT ipNF95.11b C (plexiform neurofibroma) cell line. Description: Cell viability of NF1-mutant tumor cell line hTERT ipNF95.11b C (MTT or AlamarBlue). Conditions: 7 days treatment. How it is done: as §1, §3
Data set [8] has as its system sNF96.2 (MPNST) cell line. Description: Cell viability of NF1-mutant tumor cell line sNF96.2 (MTT or AlamarBlue). Conditions: 6 days treatment. As for the experimental part:
as §1, §3

Another data set relates to MOLT4 (ALL) cell line. In words: Cell viability of NF1-mutant tumor cell line MOLT4 (MTT or AlamarBlue). Conditions: 10 days treatment. As for the experimental part: as §1, §3
The subject of data set [9] is hTERT ipnNF95.11c (plexiform neurofibroma) cell line. In words: Cell viability of NF1-mutant tumor cell line hTERT ipnNF95.11c (MTT or AlamarBlue). Conditions: 7 days treatment. How it is done:
as §1, §3

Data set [10] concerns RD (rhabdomyosarcoma) cell line. In words: Cell viability of NF1-mutant tumor cell line RD (MTT or AlamarBlue). Conditions: 6 days treatment. As for the experimental part:
as §1, §3

Data set [11] concerns A204 (rhabdoid tumor) cell line. In words: Cell viability of NF1-mutant tumor cell line A204 (MTT or AlamarBlue). The note with it: 6 days treatment. As for the experimental part:
as §1, §3

Another data set has as its system NCIH446 (SCLC) cell line. In words: Cell viability of NF1-mutant tumor cell line NCIH446 (MTT or AlamarBlue). Conditions: 10 days treatment. As for the experimental part:
as §1, §3

Data set [12] relates to DAUDI (Burkitt's lymphoma) cell line. Description: Cell viability of NF1-mutant tumor cell line DAUDI (MTT or AlamarBlue). Conditions: 4 days treatment. As for the experimental part:
as §1, §3

In general, EC50 refers to the concentration giving half of the maximal effect. `CN1CCN(C(=O)[C@H](CCCN[C@@H]2C[C@H]2c2ccc(F)cc2)NC(=O)c2ccc(-n3ccnn3)cc2)CC1` [Bomedemstat, N-[(2S)-5-{[(1R,2S)-2-(4-fluorophenyl)cyclopropyl]amino}-1-(4-methylpiperazin-1-yl)-1-oxopentan-2-yl]-4-(1H-1,2,3-triazol-1-yl)benzamide]: the EC50 in [1] was found to be 0.094 nM; with MOLM13 (AML) cell line, 5.38 nM; in data set [2], 10.5 nM.

Turning to `N[C@H]1CC[C@H](N[C@@H]2C[C@H]2c2ccccc2)CC1` [Iadademstat, (trans)-N1-((1R,2S)-2-phenylcyclopropyl)cyclohexane-1,4-diamine], the 50% effective concentration (EC50) turned out to be 0.02 nM in [1]; 0.025 nM in data set [3] (144 h, NF1 SNV at intron 14 + LOH); 0.14 nM in data set [7] (168 h, NF1 c. 1756delACTA/ LOH); 0.042 nM in data set [8] (144 h, NF1 c. 3683delC + LOH); 0.158 nM in the data set with MOLM13 (AML) cell line; 0.795 nM with MOLT4 (ALL) cell line (Homo sapiens, MOLT-4, 240 h, NF1 p. G1502G/ NS). Also, the concentration giving a half-maximal response (EC50) in data set [9] (168 h, NF1 c. 1756delACTA) was 0.841 nM; in data set [11] (Homo sapiens, 144 h, NF1 p. L1274F), 0.1 nM; in data set [2], 0.16 nM. Further, the “Response (classification according to viability reduction)” value is “Medium (medium response (viability reduction>15% and <30%))” in data set [1]; “Strong (strong response (viability reduction>30%))” in data set [3]; “Low (low response (viability reduction<15%))” in data set [4]; “Low (low response (viability reduction<15%))” in data set [5]; “Low (low response (viability reduction<15%))” in [6]; “Medium (medium response (viability reduction>15% and <30%))” in data set [7]. Besides, the “Response (classification according to viability reduction)” value is given as “Strong (strong response (viability reduction>30%))” in [8]; “Strong (strong response (viability reduction>30%))” in the data set on MOLM13 (AML) cell line; “Strong (strong response (viability reduction>30%))” in the data set on MOLT4 (ALL) cell line; “Strong (strong response (viability reduction>30%))” in data set [9]; “Low (low response (viability reduction<15%))” in [10]; “Strong (strong response (viability reduction>30%))” in data set [11]. Further, the “Response (classification according to viability reduction)” value is recorded as “Strong (strong response (viability reduction>30%))” in data set [2], “Low (low response (viability reduction<15%))” in the data set with NCIH446 (SCLC) cell line and “Low (low response (viability reduction<15%))” in data set [12].

With `COc1ccc(-c2c(-c3ccc(C#N)c(F)c3)nc(N3CCC(N)CC3)n(C)c2=O)cc1F` [Pulrodemstat, 4-[2-(4-aminopiperidin-1-yl)-5-(3-fluoro-4-methoxyphenyl)-1-methyl-6-oxo-1,6-dihydropyrimidin-4-yl]-2-fluorobenzonitrile], the concentration for a half-maximal effect (EC50) in [1] turned out to be 0.166 nM; in the data set with MOLM13 (AML) cell line, 0.82 nM; in data set [2], 1.73 nM.
